Assay results: patent US12504393B2, “Method and system for determining the progesterone-associated physiological state of lactating cows” (Yissum Research Development Company of the Hebrew …, priority 2020, dated 2025)
Entries after “also recorded” stand apart in the source; their conditions may differ.

Legend:
Format in all cases: cell-based, cow
mammary epithelial cells [1] = experiment: Fatty acid distribution between triglyceride and phospholipid fractions (TLC and gas chromatography) after 24 h progesterone
Procedure: (§1) Lipids were extracted by the Folch protocol. Briefly, each cell sample was incubated for 1 h with “Folch mixture” (chloroform:methanol, […] volumetric ratio). The organic phase was separated by addition of double-distilled water (DDW) and overnight incubation at 4° C. The upper phase was then removed, and the lower phase filtered through glass wool. The lower phase was evaporated under nitrogen and then dissolved in chloroform:methanol (3:97). Samples were kept at −20° C. until further analysis.
Lipid separation was performed by thin-layer chromatography and gas chromatography analysis. For the thin-layer chromatography, silica gel was spread on glass plates and activated at 105° C., 24 h before the analysis. After cooling, the cell samples, extracted by Folch protocol, were loaded into the plates along with triglyceride (Tg) and phospholipids (PL) standards. The plates were inserted into a tank with a mixture of petroleum ether, […] and acetic acid (8:2:1 volometric ratio) for 30 min, then sprayed with 0.05% v/v dichlorofluorescein in ethanol) and examined under UV light. The detected lipid segments were then separated from the plates into methylation mixture (5% v/v H2SO4 in methanol) for 1 h incubation at 65° C. Then, 1.5 ml petroleum-ether and 3 ml DDW were added to each sample. The upper phase was collected into a new vial and the organic solvent was evaporated with nitrogen. Then 100 μl petroleum-ether was added to each sample for fatty acid analysis in a gas chromatograph model 6890N, equipped with a flame-ionization detector and DB-23 capillary silica (0.25-μm film; Agilent Technology, Wilmington, DE). The analysis was performed according to a protocol established as described in [18]. Peaks were identified with Chemstation software (Agilent Technology). The concentrations of fatty acids are given as molar percentages of the total molar sum of the identified fatty acids. Fatty acids were classified according to chemical characteristics such as double bonds and carbon-chain length.

mammary epithelial cells [2] = experiment: Cellular triglyceride and phospholipid content and composition by HPLC-ELSD after 24 h progesterone
Procedure: To examine the effect of progesterone on MFG formation, secretion and size, the culture medium was supplemented with very low-density lipoprotein (VLDL) and progesterone at different concentrations (0, 1, 5 and 20 ng/ml). Progesterone concentrations were based on those found in the plasma during the luteal and follicular phases in vivo. After 24 h, cells were either fixed for lipid droplet size analysis (detailed below (or harvested with trypsin (0.05% w/v), sedimented by centrifugation, and washed with 0.9 gr/L NaCl.
For lipid extraction and analysis, 150,000 MEC were plated in a 60-mm plastic dish. For Nile red fluorescence staining, 50,000 MEC were plated in a 6-well plate on glass cover slips. After 24 h incubation, the culture medium was replaced with DMEM/F12 without serum, containing 0.15% (w/v) free fatty acids-free BSA and insulin (1 μg/ml), hydrocortisone (0.5 μg/ml) and prolactin (1 μg/ml). Cells were incubated for 48 h to induce milk lipid and protein synthesis.
as §1
High-pressure liquid chromatography (HPLC) was performed in an HPLC 1200 (Agilent Technology) equipped with evaporative light-scattering detector. Tg, cholesterol and PL were identified using external standards (Sigma Aldrich). Quantification was performed against external standard curves and expressed as μg/106 live cells or as weight % of the total PL (μg) in the sample. The number of live cells was determined with a hemocytometer after Trypan blue staining.

mammary epithelial cells [3] = experiment: Increasing or decreasing progesterone concentrations with or without VLDL in the culture medium: lipid droplet number and cellular phenotype
Procedure: To determine whether the effect of progesterone on lipid droplet size is mediated by the presence of VLDL, a b-factorial experiment was performed. MEC were cultured with increasing or decreasing progesterone concentrations in the presence or absence of VLDL in the culture medium. This study was aimed to provide indirect evidence of lipoprotein lipase (LPL) activity, acting on VLDL and providing the MEC with exogenous, preformed fatty acids. After 48 h of incubation, cells were fixed and stained with Nile red and intracellular lipid droplet size was determined. Cells were grown on glass cover slips, washed three times with phosphate buffered saline (PBS) and fixed with 4% paraformaldehyde in PBS for 20 min at room temperature. Then the cells were washed four times with PBS, stained with Nile red (200 nM) and incubated for 15 min. Cover slips were then washed three times with PBS and stained with DAPI for 5 min. Cover slips were washed four more times with PBS and mounted on a slide with fluorescent mounting medium (Dako North America Inc., Carpinteria, CA). The slides were visualized under an Olympus BX40 fluorescence microscope equipped with an Olympus DP73 digital camera using CellSens Entry software (version 1.7, Olympus). Lipid droplet diameter was measured using ImageJ software (version 1.48, NIH, Bethesda, MD). Lipid droplet diameter was divided into three size categories: small (<1 μm), medium (1 μm<x<2 μm) and large (>2 μm).

mammary epithelial cells [4] = experiment: Lipid droplet number and size in primary mammary epithelial cells exposed 48 h to increasing or decreasing progesterone concentrations
Procedure: The effect of progesterone concentration pattern during the estrous cycle on lipid droplet size was also tested. Primary mammary epithelial cells were exposed for 48 h to either increasing (0.75, 2.5 and 5 ng/ml) progesterone concentrations or decreasing (5, 2.5 and 0.75 ng/ml) progesterone concentrations. The concentrations were increased or decreased at specific times to reflect the progesterone pattern during the increasing and decreasing phases of the estrus cycle, i.e. the cells were exposed to increasing concentrations of 0.75, 2.5 and 5 ng/ml progesterone at 0, 17 and 28 h, respectively and cells were exposed to decreasing concentrations of 5, 2.5 and 0.75 ng/ml progesterone at 0, 28 and 34 h, respectively. Cells were then fixed and stained with nile-red. Four slides were prepared for each treatment and lipid droplets were counted and measured under fluorescence microscope. The experiment was repeated twice.
For the in-vitro study, primary culture of MEC was performed according to a protocol established described in [1]. Briefly, mammary tissue was collected from lactating cows in a commercial slaughterhouse and immediately transferred to ice-cold growth medium with 1000 U/ml penicillin, 1 mg/ml streptomycin, 2.5 μg/ml amphotericin mixture, and 0.02 mg/ml heparin. Mammary tissue was digested in medium with 1 mg/ml collagenase, 1 mg/ml hyaluronidase and 0.02 mg/ml heparin, for 3 h at 37° C. After incubation, the suspension was filtered through a metal mesh (250 μm). Sediments were treated with trypsin-EDTA solution and filtered through a 100-μm cell strainer (BD Falcon, Bedford, MA). Then, the cells were grown in plastic culture dishes with DMEM/F12 supplemented with 10% (w-/v) fetal bovine serum, 100 U/ml penicillin, 100 μg/ml streptomycin, 0.25 μg/ml amphotericin B, 1 μg/ml insulin and […] hydrocortisone. The medium was changed every 48 h.
To determine whether the absolute progesterone concentration or its pattern (i.e., increasing or decreasing) affects MFG, cells were treated for 48 h with increasing doses of progesterone: 0.75, 2.5 and 5 ng/ml. The culture medium was replaced after 11, 17, and 20 h, respectively, aimed to mimic the in-vivo luteal phase. The decreasing phase consisted of exposure to 5, 2.5 and 0.75 ng/ml progesterone. Culture medium was replaced after 8, 12 and 28 h, respectively, to mimic the follicular phase.
Cells were grown on glass cover slips, washed three times with phosphate buffered saline (PBS) and fixed with 4% paraformaldehyde in PBS for 20 min at room temperature. […] The slides were visualized under an Olympus BX40 fluorescence microscope equipped with an Olympus DP73 digital camera using CellSens Entry software (version 1.7, Olympus). Lipid droplet diameter was measured using ImageJ software (version 1.48, NIH, Bethesda, MD). […]

mammary epithelial cells [5] = experiment: Lipid droplet number and size in primary mammary epithelial cells incubated 24 h with fixed progesterone concentrations (Nile red/DAPI fluorescence microscopy)
Procedure: Epithelial cells were isolated for mammary biopsies according to the method described in [3]. Cells were incubated for 24 h with 0, 1, 5, and 20 ng/ml progesterone. Cells were then fixed with 4% paraformaldehyde and nucleus and lipid droplets were stained with Dapi and Nile red (Sigma Aldrich, Israel), respectively. Four slides were prepared for each treatment and were visualized with an Olympus BX40 fluorescence microscope equipped with an Olympus DP73 digital camera using CellSens Entry software version 1.7. The lipid droplets of 6-10 cells on each slide were counted and measured using ImageJ software. The experiment was repeated twice. For the in-vitro study, primary culture of MEC was performed according to a protocol established described in [1]. Briefly, mammary tissue was collected from lactating cows in a commercial slaughterhouse and immediately transferred to ice-cold growth medium with 1000 U/ml penicillin, 1 mg/ml streptomycin, 2.5 μg/ml amphotericin mixture, and 0.02 mg/ml heparin. Mammary tissue was digested in medium with 1 mg/ml collagenase, 1 mg/ml hyaluronidase and 0.02 mg/ml heparin, for 3 h at 37° C. After incubation, the suspension was filtered through a metal mesh (250 μm). Sediments were treated with trypsin-EDTA solution and filtered through a 100-μm cell strainer (BD Falcon, Bedford, MA). Then, the cells were grown in plastic culture dishes with DMEM/F12 supplemented with 10% (w-/v) fetal bovine serum, 100 U/ml penicillin, 100 μg/ml streptomycin, 0.25 μg/ml amphotericin B, 1 μg/ml insulin and […] hydrocortisone. The medium was changed every 48 h. To examine the effect of progesterone on MFG formation, secretion and size, the culture medium was supplemented with very low-density lipoprotein (VLDL) and progesterone at different concentrations (0, 1, 5 and 20 ng/ml). Progesterone concentrations were based on those found in the plasma during the luteal and follicular phases in vivo. After 24 h, cells were either fixed for lipid droplet size analysis (detailed below (or harvested with trypsin (0.05% w/v), sedimented by centrifugation, and washed with 0.9 gr/L NaCl. For lipid extraction and analysis, 150,000 MEC were plated in a 60-mm plastic dish. For Nile red fluorescence staining, 50,000 MEC were plated in a 6-well plate on glass cover slips. After 24 h incubation, the culture medium was replaced with DMEM/F12 without serum, containing 0.15% (w/v) free fatty acids-free BSA and insulin (1 μg/ml), hydrocortisone (0.5 μg/ml) and prolactin (1 μg/ml). Cells were incubated for 48 h to induce milk lipid and protein synthesis. Cells were grown on glass cover slips, washed three times with phosphate buffered saline (PBS) and fixed with 4% paraformaldehyde in PBS for 20 min at room temperature. Then the cells were washed four times with PBS, stained with Nile red (200 nM) and incubated for 15 min. Cover slips were then washed three times with PBS and stained with DAPI for 5 min. Cover slips were washed four more times with PBS and mounted on a slide with fluorescent mounting medium (Dako North America Inc., Carpinteria, CA). The slides were visualized under an Olympus BX40 fluorescence microscope equipped with an Olympus DP73 digital camera using CellSens Entry software (version 1.7, Olympus). Lipid droplet diameter was measured using ImageJ software (version 1.48, NIH, Bethesda, MD). Lipid droplet diameter was divided into three size categories: small (<1 μm), medium (1 μm<x<2 μm) and large (>2 μm).

In the case of `CC(=O)[C@H]1CC[C@H]2[C@@H]3CCC4=CC(=O)CC[C@]4(C)[C@H]3CC[C@]12C` [progesterone], the “distribution of stearic acid (C18:0) between Tg and PL” value (mammary epithelial cells [1]; 1 ng/ml progesterone) is reported as “higher in the PL compartment; also recorded: found primarily in the membrane”, the “distribution of stearic acid between Tg and membrane” value (mammary epithelial cells [1]; 5 ng/ml progesterone) is reported as “mostly incorporated into the Tg” and the “concentration of lignoceric acid (C24:0), Tg vs PL” value (mammary epithelial cells [1]; 5 ng/ml progesterone, P<0.05) is reported as “higher in the PL compartment”. For the same compound, the “membrane PL composition (PI, PE, PS, PC, SM)” value (mammary epithelial cells [2]; 0, 1, 5 and 20 ng/ml progesterone, 24 h) was “did not affect”, the “concentration of Tg (cellular triglyceride content)” value (mammary epithelial cells [2]; 0, 1, 5 and 20 ng/ml progesterone, 24 h, FIG. 17A) was “not affected by progesterone” and the “increase in concentration of the measured PL” value (mammary epithelial cells [2]; 1 ng/ml compared to 0, 5 and 20 ng/ml progesterone, 24 h, P<0.05) was “approximately 1.3 fold”. For the same compound, the PL amount (mammary epithelial cells [2]; 5 ng/ml progesterone, 24 h, P<0.05) was “tended to decrease”, the “PC concentration (elevated)” value (mammary epithelial cells [2]; progesterone 24 h, apparently the 1 ng/ml treatment, P<0.05) was 20 μg/106 cells and the “differences in lipid droplet number and cellular phenotype between increasing and decreasing progesterone” value (mammary epithelial cells [3]; absence of VLDL) was “no differences were found”. The “increase in MEC with large lipid droplets (>1 μm)” value (mammary epithelial cells [3]; decreasing progesterone concentration model with VLDL, P<0.0001) was 4 fold, the “increase in proportion of MEC with small lipid droplets (<1 μm)” value (mammary epithelial cells [3]; increasing progesterone concentration model with VLDL) was 2.4 fold and the “average number of lipid droplets per field” value (mammary epithelial cells [3]; increasing progesterone concentration with VLDL vs other treatments, FIG. 20B, P<0.0001) was “Highest number of lipid droplets”. For the same compound, the “proportion of large lipid droplets (>2 μm) of the total number of lipid droplets” value (mammary epithelial cells [4]; decreasing ('down') compared to increasing ('up') progesterone concentrations, 48 h, FIG. 6, P=0.03) was 2 fold, the “increase in the number of lipid droplets” value (mammary epithelial cells [4]; increasing (0.75, 2.5, 5 ng/ml, 'up') relative to decreasing (5, 2.5, 0.75 ng/ml, 'down') progesterone, 48 h, FIG. 5, P<0.0001) was 5.5 fold and the “increase in the large lipid droplets” value (mammary epithelial cells [4]; increasing progesterone concentration 'compared to the increasing progesterone pattern' (so in the source), P<0.0001) was 3 fold. For the same compound, the “large lipid droplet phenotype (cells with droplets x>1 μm)” value (mammary epithelial cells [4]; increasing vs decreasing progesterone, FIG. 19C) was “only visualized in cells treated with increasing progesterone levels”, the “proportion of large droplets (>1 μm)” value (mammary epithelial cells [5]; 0, 1 or 20 ng/ml progesterone, 24 h) was no more than 20% and the “proportion of droplets larger than 1 μm” value (mammary epithelial cells [5]; 5 ng/ml progesterone, 24 h) was “over 40%”. For the same compound, the “number of lipid droplets” value (mammary epithelial cells [5]; 5 ng/ml progesterone, 24 h, vs control) was “did not differ from the control”, the “rate of large droplets (>1 μm)” value (mammary epithelial cells [5]; 20 ng/ml progesterone, 24 h) was 6.5% and the “number of large lipid droplets (>1 μm) per cell” value (mammary epithelial cells [5]; 1 and 5 ng/ml progesterone, 24 h, relative to control (0 ng/ml), FIG. 3) was “higher number of large lipid droplets”. The “proportion of large lipid droplets (X≥1 μm)” value (mammary epithelial cells [5]; 1 and 5 ng/ml relative to 20 ng/ml progesterone, FIG. 4, P<0.0001) was “higher” and the “number of lipid droplets” value (mammary epithelial cells [5]; 1 or 20 ng/ml progesterone, 24 h, vs control (no progesterone), P<0.0001) was 3.5 fold.
